Experiments:
[1] = biological target: T1, recombinant human CL receptor/RAMP1 (Homo sapiens, UniProt O60894+Q16602); experiment: Recombinant receptor functional assay (cAMP, HTRF); type: cell-based; conditions: HEK 293 cells, 1.2 nM human α-CGRP, cAMP determination
T1 construct: expressed in transfected cells
Procedure: (§1) RECOMBINANT RECEPTOR: Human CL receptor (Genbank accession number L76380) was subcloned into the expression vector pIREShyg2 (BD Biosciences Clontech) as a 5′NheI and 3′ PmeI fragment. Human RAMP1 (Genbank accession number AJ001014) was subcloned into the expression vector pIRESpuro2 (BD Biosciences Clontech) as a 5′NheI and 3′NotI fragment. HEK 293 cells (human embryonic kidney cells; ATCC #CRL-1573) were cultured in DMEM with 4.5 g/L glucose, 1 mM sodium pyruvate and 2 mM glutamine supplemented with 10% fetal bovine serum (FBS), 100 units/mL penicillin and 100 μg/mL streptomycin, and maintained at 37° C. and 95% humidity. Cells were subcultured by treatment with 0.25% trypsin with 0.1% EDTA in HBSS. Stable cell line generation was accomplished by co-transfecting 10 μg of DNA with 30 μg Lipofectamine 2000 (Invitrogen) in 75 cm^2 flasks. CL receptor and RAMP1 expression constructs were co-transfected in equal amounts. […]
RECOMBINANT RECEPTOR FUNCTIONAL ASSAY: Cells were resuspended in DMEM/F12 (Hyclone) supplemented with 1 g/L BSA and 300 μM isobutyl-methylxanthine. […] Raw data were transformed into concentration of cAMP using a standard curve then dose response curves were plotted and inflection point (IP) values were determined.

[2] = biological target: T1, recombinant human CL receptor/RAMP1; experiment: Recombinant receptor binding assay (125I-hCGRP); conditions: membranes of HEK 293 cells expressing human CL receptor/RAMP1, 10 pM 125I-hCGRP, 3 h room temperature
Procedure: as §1
[formula] Where Y is observed CPM bound, Ymax is total bound counts, Ymin is non specific bound counts, (Ymax−Ymin) is specific bound counts, % Imax is the maximum percent inhibition, % I min is the minimum percent inhibition, radiolabel is the probe, and the Kd is the apparent dissociation constant for the radioligand for the receptor as determined by hot saturation experiments.

T1 sequence (Q16602 23-461): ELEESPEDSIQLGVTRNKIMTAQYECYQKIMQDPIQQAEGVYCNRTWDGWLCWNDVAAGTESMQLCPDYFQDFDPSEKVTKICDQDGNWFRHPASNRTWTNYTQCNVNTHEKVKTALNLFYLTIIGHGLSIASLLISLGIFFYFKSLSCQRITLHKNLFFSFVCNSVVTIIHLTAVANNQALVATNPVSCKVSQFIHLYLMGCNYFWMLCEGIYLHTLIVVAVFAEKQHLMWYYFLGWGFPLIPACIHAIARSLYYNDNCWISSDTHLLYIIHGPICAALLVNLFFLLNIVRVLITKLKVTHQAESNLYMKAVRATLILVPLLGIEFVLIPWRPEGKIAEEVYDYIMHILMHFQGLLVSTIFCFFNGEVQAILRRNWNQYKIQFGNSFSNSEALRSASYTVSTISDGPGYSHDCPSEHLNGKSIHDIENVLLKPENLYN
T1 sequence (O60894 27-148): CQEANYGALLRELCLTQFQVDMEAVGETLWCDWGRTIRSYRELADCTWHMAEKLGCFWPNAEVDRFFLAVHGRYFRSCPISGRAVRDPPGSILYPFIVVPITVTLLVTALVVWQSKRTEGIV

IC50 [1] [nM] | Ki [2] [nM] | SMILES
7.2 | – | CC1C(c2cc(F)cc(F)c2F)CC(CC=Cc2cnc3c(c2)C[C@@]2(C3)C(=O)Nc3ncccc32)C(=O)N1CC(F)(F)F (stereo partly drawn) [Example 1, (3′S)-3-(3-(6-Methyl-2-oxo-1-(2,2,2-trifluoroethyl)-5-(2,3,5-trifluorophenyl)piperidin-3-yl)prop-1-en-1-yl)-5,7-dihydrospiro[cyclopenta[b]pyridine-6,3′-pyrrolo[2,3-b]pyridin]-2′(1′H)-one]
– | 409 | C[C@@H]1[C@H](c2ccccc2)C[C@H](NCC(F)(F)c2cnc3c(c2)C[C@@]2(C3)C(=O)Nc3ncccc32)C(=O)N1CC(F)(F)F [Example 2, (6S)-3-(1,1-Difluoro-2-(((3S,5S,6R)-6-methyl-2-oxo-5-phenyl-1-(2,2,2-trifluoroethyl)piperidin-3-yl)amino)ethyl)-5,7-dihydrospiro[cyclopenta[b]pyridine-6,3′-pyrrolo[2,3-b]pyridin]-2′(1′H)-one]
3720 | – | C[C@@H]1[C@H](c2ccccc2)C[C@H](NS(=O)(=O)c2cnc3c(c2)C[C@@]2(C3)C(=O)Nc3ncccc32)C(=O)N1CC(F)(F)F [Example 3, (6S)—N-[(3S,5S,6R)-6-Methyl-2-oxo-5-phenyl-1-(2,2,2-trifluoroethyl)piperidin-3-yl]-2′-oxo-1′,2′,5,7-tetrahydrospiro[cyclopenta[b]pyridine-6,3′-pyrrolo[2,3-b]pyridine]-3-sulfonamide]
